These results are taken from US20240335442A1 (Eurofarma Laboratórios S.A., priority 2021, published 2024).

Experiment [1] addresses human sodium channel Nav 1.8 (Homo sapiens (Human), UniProt Q9Y5Y9). Briefly: Automated whole-cell voltage-clamp (ScreenPatch 384P), Nav 1.8 sodium current, Protocol 2. To be noted: read-out: Nav1.8 IC50. In kind it is cell-based. An outline of the steps:
(§1)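 Peak TP1A sodium current block, scaled between DMSO vehicle and positive control, was fitted with a Hill equation to give IC50 at eight compound concentrations (≥5 min, room temperature) in stable CHO lines. Protocol 2 (0.05 Hz) used an 8 s −40 mV inactivating prepulse from −100 mV; Protocol 1 (0.1 Hz) held at −90 mV; test steps 10 mV for Nav1.8, 0 mV for Nav1.7.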

Experiment [2] has as its target human sodium channel Nav 1.7 (Homo sapiens (Human), UniProt Q15858). Briefly: Automated whole-cell voltage-clamp (ScreenPatch 384P), Nav 1.7 sodium current, Protocol 2. Type of experiment: cell-based. To be noted: read-out: Nav1.7 IC50. In outline:
as §1

pIC50: −log10 of the molar value.

Chain of human sodium channel Nav 1.8 (Q9Y5Y9 whole entry): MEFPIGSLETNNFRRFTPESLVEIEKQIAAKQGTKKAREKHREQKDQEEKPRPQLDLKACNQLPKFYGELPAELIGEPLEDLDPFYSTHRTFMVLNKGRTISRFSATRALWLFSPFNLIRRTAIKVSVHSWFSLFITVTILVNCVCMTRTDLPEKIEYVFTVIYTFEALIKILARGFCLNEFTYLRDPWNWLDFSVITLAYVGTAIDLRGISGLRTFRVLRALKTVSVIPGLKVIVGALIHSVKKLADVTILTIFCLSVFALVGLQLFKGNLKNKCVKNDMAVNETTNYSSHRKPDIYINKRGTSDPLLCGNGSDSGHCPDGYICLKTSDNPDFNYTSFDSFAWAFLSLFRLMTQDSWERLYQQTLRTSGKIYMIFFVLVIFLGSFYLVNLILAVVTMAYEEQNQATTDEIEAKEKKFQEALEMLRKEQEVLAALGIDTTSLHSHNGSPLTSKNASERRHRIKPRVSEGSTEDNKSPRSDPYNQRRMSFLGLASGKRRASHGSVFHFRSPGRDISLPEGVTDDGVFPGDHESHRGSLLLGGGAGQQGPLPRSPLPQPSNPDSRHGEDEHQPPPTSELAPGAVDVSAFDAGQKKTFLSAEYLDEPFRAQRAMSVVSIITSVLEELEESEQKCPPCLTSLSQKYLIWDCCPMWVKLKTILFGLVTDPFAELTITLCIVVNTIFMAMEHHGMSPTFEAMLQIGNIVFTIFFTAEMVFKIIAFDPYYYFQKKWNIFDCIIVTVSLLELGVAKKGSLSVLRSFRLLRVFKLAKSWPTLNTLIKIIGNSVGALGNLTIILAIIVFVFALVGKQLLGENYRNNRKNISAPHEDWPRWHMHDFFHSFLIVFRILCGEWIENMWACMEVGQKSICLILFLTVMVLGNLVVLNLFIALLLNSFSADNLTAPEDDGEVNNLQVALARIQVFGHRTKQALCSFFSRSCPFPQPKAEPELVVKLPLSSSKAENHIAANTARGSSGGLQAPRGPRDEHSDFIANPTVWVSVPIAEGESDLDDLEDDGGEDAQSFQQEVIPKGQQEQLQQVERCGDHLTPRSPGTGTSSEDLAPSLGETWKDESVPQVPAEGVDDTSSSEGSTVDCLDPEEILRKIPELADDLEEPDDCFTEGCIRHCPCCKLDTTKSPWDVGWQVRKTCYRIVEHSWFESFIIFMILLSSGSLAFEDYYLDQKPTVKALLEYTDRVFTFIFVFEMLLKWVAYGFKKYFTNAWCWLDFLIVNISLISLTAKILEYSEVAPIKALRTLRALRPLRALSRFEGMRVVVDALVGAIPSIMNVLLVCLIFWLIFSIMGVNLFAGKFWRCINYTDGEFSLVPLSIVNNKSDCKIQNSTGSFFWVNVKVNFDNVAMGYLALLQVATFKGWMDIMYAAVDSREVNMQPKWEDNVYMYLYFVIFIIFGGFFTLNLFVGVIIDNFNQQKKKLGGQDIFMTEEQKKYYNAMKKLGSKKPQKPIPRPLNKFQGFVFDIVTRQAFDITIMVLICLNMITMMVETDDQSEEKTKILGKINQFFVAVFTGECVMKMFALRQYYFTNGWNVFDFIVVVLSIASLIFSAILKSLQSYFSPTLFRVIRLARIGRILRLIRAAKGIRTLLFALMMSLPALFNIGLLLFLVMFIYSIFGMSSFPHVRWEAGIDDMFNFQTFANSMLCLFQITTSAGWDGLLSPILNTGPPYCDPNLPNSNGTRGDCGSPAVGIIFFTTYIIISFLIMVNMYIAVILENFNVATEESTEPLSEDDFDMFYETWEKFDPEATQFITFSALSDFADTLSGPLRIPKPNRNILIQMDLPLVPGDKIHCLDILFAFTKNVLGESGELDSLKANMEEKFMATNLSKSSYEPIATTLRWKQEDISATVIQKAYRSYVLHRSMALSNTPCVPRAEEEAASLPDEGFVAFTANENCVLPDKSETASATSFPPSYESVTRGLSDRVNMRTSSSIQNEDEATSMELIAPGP
Chain of human sodium channel Nav 1.7 (Q15858 whole entry): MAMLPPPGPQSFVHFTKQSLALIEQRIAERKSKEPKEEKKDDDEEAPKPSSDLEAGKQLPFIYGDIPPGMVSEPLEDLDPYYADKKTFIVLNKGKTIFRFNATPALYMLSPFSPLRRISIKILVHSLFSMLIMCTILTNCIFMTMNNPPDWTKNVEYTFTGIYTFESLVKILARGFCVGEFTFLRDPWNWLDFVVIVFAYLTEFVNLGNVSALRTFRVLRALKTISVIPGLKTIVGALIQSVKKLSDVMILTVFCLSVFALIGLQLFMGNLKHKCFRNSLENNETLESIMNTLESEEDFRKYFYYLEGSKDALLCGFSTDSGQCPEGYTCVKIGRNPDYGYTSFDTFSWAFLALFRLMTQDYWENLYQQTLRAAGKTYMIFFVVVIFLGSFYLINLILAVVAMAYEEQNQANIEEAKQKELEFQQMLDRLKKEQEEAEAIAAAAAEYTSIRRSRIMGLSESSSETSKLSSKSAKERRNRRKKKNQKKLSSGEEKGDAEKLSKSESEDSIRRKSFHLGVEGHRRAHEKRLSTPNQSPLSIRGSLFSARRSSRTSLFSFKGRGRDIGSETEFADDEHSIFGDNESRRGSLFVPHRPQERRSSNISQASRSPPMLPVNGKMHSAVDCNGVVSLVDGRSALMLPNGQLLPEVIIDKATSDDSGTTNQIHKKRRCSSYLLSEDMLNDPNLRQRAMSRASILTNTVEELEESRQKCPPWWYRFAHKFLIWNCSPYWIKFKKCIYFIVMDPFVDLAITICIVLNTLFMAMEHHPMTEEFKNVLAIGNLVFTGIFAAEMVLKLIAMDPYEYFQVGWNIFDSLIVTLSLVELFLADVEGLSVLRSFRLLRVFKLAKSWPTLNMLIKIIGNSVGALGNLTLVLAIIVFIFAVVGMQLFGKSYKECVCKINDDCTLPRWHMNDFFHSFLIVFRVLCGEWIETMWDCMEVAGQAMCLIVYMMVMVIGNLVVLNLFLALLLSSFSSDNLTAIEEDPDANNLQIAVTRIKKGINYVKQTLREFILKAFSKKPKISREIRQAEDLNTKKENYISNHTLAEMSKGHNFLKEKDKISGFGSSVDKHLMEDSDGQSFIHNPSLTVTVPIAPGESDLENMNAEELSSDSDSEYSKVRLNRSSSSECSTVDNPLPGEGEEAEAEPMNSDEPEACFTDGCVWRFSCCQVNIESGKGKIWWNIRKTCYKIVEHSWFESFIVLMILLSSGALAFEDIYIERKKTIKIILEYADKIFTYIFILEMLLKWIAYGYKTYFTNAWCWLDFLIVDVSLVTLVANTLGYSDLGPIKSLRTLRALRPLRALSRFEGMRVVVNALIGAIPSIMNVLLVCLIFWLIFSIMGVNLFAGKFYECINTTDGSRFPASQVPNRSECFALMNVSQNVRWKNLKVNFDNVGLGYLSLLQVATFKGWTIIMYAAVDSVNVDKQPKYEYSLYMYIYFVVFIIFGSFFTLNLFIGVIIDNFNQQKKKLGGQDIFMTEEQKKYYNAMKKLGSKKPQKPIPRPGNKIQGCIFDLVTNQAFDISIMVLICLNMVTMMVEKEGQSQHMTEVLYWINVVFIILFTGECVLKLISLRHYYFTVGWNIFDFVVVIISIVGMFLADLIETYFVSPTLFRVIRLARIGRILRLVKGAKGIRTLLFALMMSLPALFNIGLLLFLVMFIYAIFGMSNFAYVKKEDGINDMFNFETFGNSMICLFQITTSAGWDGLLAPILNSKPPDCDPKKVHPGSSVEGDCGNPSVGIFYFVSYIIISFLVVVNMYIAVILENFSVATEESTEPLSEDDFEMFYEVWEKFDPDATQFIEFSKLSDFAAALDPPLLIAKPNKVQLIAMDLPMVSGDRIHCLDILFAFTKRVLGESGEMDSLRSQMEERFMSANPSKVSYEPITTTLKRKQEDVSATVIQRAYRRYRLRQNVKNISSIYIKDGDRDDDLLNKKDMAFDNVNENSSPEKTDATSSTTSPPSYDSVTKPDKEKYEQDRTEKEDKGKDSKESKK

`COc1cc(/C=N/NC(=O)c2cncc(-c3ccc(C)cc3)n2)cc(OC)c1` [Compound 96, (E)-N′-(3,5-dimethoxybenzylidene)-6-(p-tolyl)pyrazine-2-carbohydrazide]: the pIC50 in experiment [1] was 6.05; in experiment [2], below 5.00.
The matching figures for `COc1cc(/C=N/NC(=O)c2cncc(-c3ccccc3)n2)cc(OC)c1` [Compound 97, (E)-N′-(3,5-dimethoxybenzylidene)-6-phenylpyrazine-2-carbohydrazide]: 6.40 and below 5.00.
Consider `COc1cc(/C=N/NC(=O)c2cncc(-c3ccccc3F)n2)cc(OC)c1` [Compound 98, (E)-N′-(3,5-dimethoxybenzylidene)-6-(2-fluorophenyl)pyrazine-2-carbohydrazide], for which the pIC50 in experiment [1] is below 6.00; in experiment [2], below 5.00.
With `COc1cc(/C=N/NC(=O)c2cncc(-c3ccccc3OC)n2)cc(OC)c1` [Compound 102, (E)-N′-(3,5-dimethoxybenzylidene)-6-(2-methoxyphenyl)pyrazine-2-carbohydrazide], the results for the pIC50 in experiment [1] and in experiment [2] were 6.34 and below 5.00, respectively.
On the same counts, the results for `COc1cc(/C=N/NC(=O)c2cncc(-c3ccncc3)n2)cc(OC)c1` [Compound 103, (E)-N′-(3,5-dimethoxybenzylidene)-6-(pyridin-4-yl)pyrazine-2-carbohydrazide] are below 6.00 and below 5.00.
The matching figures for `COc1cc(/C=N/NC(=O)c2cncc(-c3cccnc3)n2)cc(OC)c1` [Compound 104, (E)-N′-(3,5-dimethoxybenzylidene)-6-(pyridin-3-yl)pyrazine-2-carbohydrazide]: below 6.00 and below 5.00.
The matching figures for `CCOc1ccc(-c2cncc(C(=O)N/N=C/c3cc(F)cc(OC)c3)n2)c(OC)c1` [Compound 105, (E)-6-(4-ethoxy-2-methoxypehnyl)-N′-(3-fluoro-5-methoxybenzylidene)pyrazine-2-carbohydrazide]: 7.47 and 7.35.
Take `CCCOc1cc(/C=N/NC(=O)c2cncc(-c3ccc(OCC)cc3OC)n2)cc(OC)c1` [Compound 106, (E)-6-(4-ethoxy-2-methoxyphenyl)-N′-(3-methoxy-5-propoxybenzylidene)pyrazine-2-carbohydrazide]: the values for the pIC50 in experiment [1] and in experiment [2] were 7.05 and 7.08, respectively.
On the same counts, the results for `CCOc1ccc(-c2cncc(C(=O)N/N=C/c3cc(OC)c(F)c(OC)c3)n2)c(OC)c1` [Compound 107, (E)-6-(4-ethoxy-2-methoxyphenyl)-N′-(4-fluoro-3,5-dimethoxybenzylidene)pyrazine-2-carbohydrazide] are 6.00 and 5.29.
As for `CCOc1ccc(-c2cncc(C(=O)N/N=C/c3cccc(OC)c3)n2)c(OC)c1` [Compound 108, (E)-6-(4-ethoxy-2-methoxyphenyl)-N′-(3-methoxybenzylidene)pyrazine-2-carbohydrazide], the results for the pIC50 in experiment [1] and in experiment [2] were 7.75 and 7.51, respectively.
The matching figures for `COc1cc(/C=N/NC(=O)c2cncc(-c3ccc(OC)cc3C)n2)cc(OC)c1` [Compound 109, (E)-N′-(3,5-dimethoxybenzylidene)-6-(4-methoxy-2-methylphenyl)pyrazine-2-carbohydrazide]: 6.83 and 6.25.
As to `CCOc1ccc(-c2cncc(C(=O)N/N=C/c3cccc(OC)c3)n2)c(Cl)c1` [Compound 111, (E)-6-(2-chloro-4-ethoxyphenyl)-N′-(3-methoxybenzylidene)pyrazine-2-carbohydrazide], the figures for the pIC50 in experiment [1] and in experiment [2] were 6.92 and 6.27, respectively.
In the case of `COc1cc(/C=N/NC(=O)c2cncc(-c3ccc(OC)cc3OC(F)(F)F)n2)cc(OC)c1` [Compound 112], the negative-log IC50 (pIC50) in experiment [1] was 6.02; in experiment [2], 5.63.
On the same counts, the results for `CCCc1ccc(-c2cncc(C(=O)N/N=C/c3cc(OC)cc(OC)c3)n2)cc1` [Compound 113, (E)-N′-(3,5-dimethoxybenzylidene)-6-(4-propylphenyl)pyrazine-2-carbohydrazide] are 6.36 and 6.00.
On the same counts, the results for `COc1cc(/C=N/NC(=O)c2cncc(-c3ccccc3N3CCOCC3)n2)cc(OC)c1` [Compound 114] are below 6.00 and below 5.00.
`COc1cc(/C=N/NC(=O)c2cncc(-c3ccc(CC(C)C)cc3)n2)cc(OC)c1` [Compound 116, (E)-N′-(3,5-dimethoxybenzylidene)-6-(4-isobutylphenyl)pyrazine-2-carbohydrazide]: the pIC50 in experiment [1] is 6.48; in experiment [2], 6.18.
On the same counts, the results for `CCOc1ccc(-c2cncc(C(=O)N/N=C/c3cc(OC)cc(OC)c3)n2)cc1Cl` [Compound 117, (E)-6-(3-chloro-4-ethoxyphenyl)-N′-(3,5-dimethoxybenzylidene)pyrazine-2-carbohydrazide] are 6.62 and 6.13.
The matching figures for `CCSc1ccc(-c2cncc(C(=O)N/N=C/c3cc(OC)cc(OC)c3)n2)cc1` [Compound 118, (E)-N′-(3,5-dimethoxybenzylidene)-6-(4-(ethylthio)phenyl)pyrazine-2-carbohydrazide]: 7.10 and 6.38.
The matching figures for `CCOc1ccc(-c2cncc(C(=O)N/N=C/c3cccc(OC)c3)n2)c(F)c1` [Compound 119, (E)-6-(4-ethoxy-2-fluorophenyl)-N′-(3-methoxybenzylidene)pyrazine-2-carbohydrazide]: 6.89 and below 5.00.
For the compound `CCOc1ccc(-c2cncc(C(=O)N/N=C/c3cccc(OC)c3)n2)c(C(F)(F)F)c1` [Compound 120, (E)-6-(4-ethoxy-2-(trifluoromethyl)phenyl)-N′-(3-methoxybenzylidene)pyrazine-2-carbohydrazide], the pIC50 in experiment [1] is 6.87; in experiment [2], 6.94.
As to `COc1cc(/C=N/NC(=O)c2cncc(-c3ccc(OC)cc3F)n2)cc(OC)c1` [Compound 121, (E)-N′-(3,5-dimethoxybenzylidene)-6-(2-fluoro-4-methoxyphenyl)pyrazine-2-carbohydrazide], the figures for the pIC50 in experiment [1] and in experiment [2] were 6.93 and 6.30, respectively.
The matching figures for `COc1cc(/C=N/NC(=O)c2cncc(-c3ccc(OC)cc3Cl)n2)cc(OC)c1` [Compound 122]: below 6.00 and 5.29.
For `COc1cc(/C=N/NC(=O)c2cncc(-c3ccc(OC)cc3C(F)(F)F)n2)cc(OC)c1` [Compound 123, (E)-N′-(3,5-dimethoxybenzylidene)-6-(4-methoxy-2-(trifluromethoxy)phenyl)pyrazine-2-carbohydrazide], the values for the pIC50 in experiment [1] and in experiment [2] were 6.10 and 7.31, respectively.
The matching figures for `COc1cc(/C=N/NC(=O)c2cncc(-c3ccc(OC)cc3OC)n2)cc(OC)c1` [Compound 124, (E)-N′-(3,5-dimethoxybenzylidene)-6-(2,4-dimethoxyphenyl)pyrazine-2-carbohydrazide]: 7.14 and 6.74.
On the same counts, the results for `COc1cc(/C=N/NC(=O)c2cncc(-c3ccccn3)n2)cc(OC)c1` [Compound 125, (E)-N′-(3,5-dimethoxybenzylidene)-6-(pyridin-2-yl)pyrazine-2-carbohydrazide] are below 6.00 and below 5.00.
For the compound `COc1cc(/C=N/NC(=O)c2cncc(N3CCOCC3)n2)cc(OC)c1` [Compound 126, (E)-N′-(3,5-dimethoxybenzylidene)-6-morpholinopyrazine-2-carbohydrazide], the pIC50 is below 6.00 in experiment [1] and below 5.00 in experiment [2].
On the same counts, the results for `COc1cc(/C=N/NC(=O)c2cncc(N3CCCCC3)n2)cc(OC)c1` [Compound 127, (E)-N′-(3,5-dimethoxybenzylidene)-6-(piperidin-1-yl)pyrazine-2-carbohydrazide] are below 6.00 and below 5.00.
On the same counts, the results for `CCCN1CCN(c2cncc(C(=O)N/N=C/c3cc(OC)cc(OC)c3)n2)CC1` [Compound 128, (E)-N′-(3,5-dimethoxybenzylidene)-6-(4-propylpiperazin-1-yl)pyrazine-2-carbohydrazide] are below 6.00 and below 5.00.
As for `COc1ccc(Oc2cnc(C(=O)N/N=C/c3cc(OC)cc(OC)c3)cn2)cc1` [Compound 130], the pIC50 in experiment [1] was below 6.00; in experiment [2] it was below 5.00.
On the same counts, the results for `CCc1nccnc1C(=O)N/N=C/c1cc(OC)cc(OC)c1` [Compound 132, (E)-N′-(3,5-dimethoxybenzylidene)-3-ethylpyrazine-2-carbohydrazide] are below 6.00 and below 5.00.
With `CCc1cncc(C(=O)N/N=C/c2cc(OC)cc(OC)c2)n1` [Compound 133, (E)-N′-(3,5-dimethoxybenzylidene)-6-ethylpyrazine-2-carbohydrazide], the pIC50 in experiment [1] is 6.04; in experiment [2], below 5.00.
Regarding `COc1cc(/C=N/NC(=O)c2cncc(C(C)C)n2)cc(OC)c1` [Compound 134, (E)-N′-(3,5-dimethoxybenzylidene)-6-isopropylpyrazine-2-carbohydrazide], the pIC50 was below 6.00 in experiment [1] and below 5.00 in experiment [2].
The matching figures for `COc1cc(/C=N/NC(=O)c2nccnc2C(C)C)cc(OC)c1` [Compound 135, (E)-N′-(3,5-dimethoxybenzylidene)-3-isopropylpyrazine-2-carbohydrazide]: below 6.00 and below 5.00.
On the same counts, the results for `COc1cc(/C=N/NC(=O)c2cnc(C(C)C)cn2)cc(OC)c1` [Compound 136, (E)-N′-(3,5-dimethoxybenzylidene)-5-isopropylpyrazine-2-carbohydrazide] are below 6.00 and below 5.00.
Turning to `COc1cc(/C=N/NC(=O)c2cncc(C)n2)cc(OC)c1` [Compound 137, (E)-N′-(3,5-dimethoxybenzylidene)-6-methylpyrazine-2-carbohydrazide], the values for the pIC50 in experiment [1] and in experiment [2] were below 6.00 and below 5.00, respectively.

What is called pIC50 is −log10 of the IC50, conventionally taken in molar units.
